# From patent US20190175557A1, “COMPOUNDS USEFUL FOR DECREASING INTERFERON LEVEL” (priority 2016, published 2019)
# Key:
# HIV-stimulated pDC = test: IFN-α / type I IFN production by HIV-stimulated purified pDC (ELISA); format: cell-based, human
# CXCR4 = CXCR4 (Homo sapiens, UniProt P61073); settings: Jurkat cells, 1 mM, 4° C. for 30 min
# [1] = tested on: collagen-induced arthritis in DBA1/J mice; test: Therapeutic collagen-induced arthritis model in DBA1/J mice; format: in vivo, mouse; settings: for average AI (Arthritic Index): maximum AI=16
# Procedure: 80 DBA1/J mice (male, 7-8 weeks) was received and placed in quarantine for 3 days with daily inspections. Ear tag mice for individual identification.
# Individual mouse weights were recorded. Hind paw thickness were recorded by digital caliper. 80 mice subcutaneous were injected with collagen/CFA emulsion (0.05 ml/mouse; 100 μg/mouse collagens in CFA) using a 1 ml syringe fitted with a 25G needle. Mice returned to cages.
# 80 mice were boosted with collagen/ICFA emulsion. Then their individual weights were recorded.
# Mice were scored for signs of arthritis:
# 7) Calculate Arthritic Index (AI) by addition of individual paw scores and record.
# Mice with an AI score within a range of 2-6 were selected for assignment to groups for therapeutic dosing as in Table 4.
# Begin intraperitoneal (IP) dosing once daily (QD) according to Table 4.
# The compounds clobenpropit (CB) and IT1t were tested. CB and IT1t were stored at 4° C. […] These compounds were doses 7 days per week (Saturday and Sunday included) daily for 14 days.
# Mice were weighed, scored for signs or arthritis, and hind paw thickness is measured by digital caliper three-times weekly (Monday, Wednesday and Friday). Any adverse reactions to treatment were recorded.
# Termination: AI score were recorded for each limb. The paw thickness of the hind limbs is measured with digital caliper. Mice were anesthetized and exsanguinated into pre-chilled EDTA-tubes.
# 2) Plasma was assayed by ELISA for IL-1β, IL-6, TRAIL. Then, all limbs were collected.
# [2] = tested on: pristane-induced SLE in Balb/c mice; test: Pristane-induced systemic lupus erythematosus (SLE) model in Balb/c mice; format: in vivo, mouse; settings: 3, 10, 30 mg/kg IP QD
# Procedure: Receive and quarantine (SOP 560) 70 female Balb/C (20-25 g) mice and house in filter-topped cages supplied with autoclaved bedding.
# The animals are weighed, ear tagged for individual identification and randomly assigned to 8 treatment groups of 8 animals each and two groups of 3 animals (for pre-tolerance at 30 mg/kg of survival).
# The test items compounds clobenpropit (CB) and IT1t are stored at 4° C.
# Mouse weights are recorded twice a week, and daily observations for clinical signs.
# Collected sera are stored at −80° C. for measurements of autoantibody on weeks 4, 8 and 10. (Predose will kept at −80° C. for potential use). Anti-dsDNA level is a standard screening readout for identifying efficacy of test compounds in a SLE model.
# Measurements: weeks 4, 8, 10: (1) autoantibody (anti-dsDNA), collagen and cytokines TNFα, IL-6 and TRAIL by ELISA and (2) ANA antibody by IFA.
# [3] = tested on: human Flu-activated primary PBMC; test: cells; format: cell-based; settings: read-out: EC50
# [4] = tested on: Flu-stimulated pDC from wild type and H4R KO mice; format: cell-based, mouse; settings: CB 10 μM, overnight Influenza A
# pDC = test: Cytotoxicity of compounds on cultured pDC; settings: 10 μM
# [5] = tested on: NK cells activated by K562 cells; test: IFN-γ, TNF-α and CD107a expression by NK cells activated by K562 cells (flow cytometry); format: cell-based; settings: treated 1 hour, then activated by K562 cells
# flu-exposed human PBMC = format: cell-based; settings: cells pre-treated before Flu exposure, human PBMC
# [6] = 10 mg/kg IP once daily, at termination
# [7] = 30 mg/kg IP once daily, at termination
# Sequence of CXCR4 (P61073 whole entry): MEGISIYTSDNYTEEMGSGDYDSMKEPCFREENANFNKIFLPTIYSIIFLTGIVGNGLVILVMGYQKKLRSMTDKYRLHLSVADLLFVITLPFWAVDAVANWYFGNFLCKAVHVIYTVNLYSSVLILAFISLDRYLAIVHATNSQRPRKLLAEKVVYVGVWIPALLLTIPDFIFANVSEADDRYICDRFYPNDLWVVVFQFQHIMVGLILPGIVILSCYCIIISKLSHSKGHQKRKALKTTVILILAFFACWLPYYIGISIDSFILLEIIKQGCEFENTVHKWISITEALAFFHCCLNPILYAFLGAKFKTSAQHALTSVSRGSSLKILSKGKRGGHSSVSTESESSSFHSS
compound,measurement,setting,value
"NC(=NCc1ccc(Cl)cc1)SCCCc1cnc[nH]1 [Clobenpropit, clobenpropit]",IFN-α production kinetics by HIV-stimulated pDC,HIV-stimulated pDC; after 9 h of incubation,inhibited
same,inhibitory effect on pDC activation / IFN-α production by HIV-1,"HIV-stimulated pDC; purified pDC, 10 μM",stronger inhibitory effect than histamine
same,reduction of levels of IFN-α secreted following HIV stimulation,"HIV-stimulated pDC; purified pDC, 10 μM, ELISA",approximately 90%
same,binding of the CXCR4 antibody 12G5 on T cells,CXCR4,inhibited
same,reduction in terminal plasma concentration of IL-1β,[1]; 3 mg/kg IP once daily,64%
same,reduction in terminal plasma concentration of IL-6,[1]; 3 mg/kg IP once daily,49%
same,reduction in terminal plasma concentration of TRAIL,[1]; 3 mg/kg IP once daily,had also an effect
same,inhibition of disease severity,"[1]; 3 mg/kg IP once daily, Day 28-42, at termination (Day 42)",25%
same,average AI (Arthritic Index),"[1]; 3 mg/kg IP once daily, at termination (Day 42)",9.8
same,reduction in terminal plasma concentration of IL-1β,[1]; 10 mg/kg IP once daily,75%
same,reduction in terminal plasma concentration of IL-6,[1]; 10 mg/kg IP once daily,80%
same,reduction in terminal plasma concentration of TRAIL,[1]; 10 mg/kg IP once daily,had also an effect
same,reduction in disease severity,[1]; [6],66%
same,average AI (Arthritic Index),[1]; [6],4.4
same,reduction in terminal plasma concentration of IL-1β,[1]; 30 mg/kg IP once daily,82%
same,reduction in terminal plasma concentration of IL-6,[1]; 30 mg/kg IP once daily,82%
same,reduction in terminal plasma concentration of TRAIL,[1]; 30 mg/kg IP once daily,significant reduction
same,reduction in disease severity,[1]; [7],87%
same,average AI (Arthritic Index),[1]; [7],1.8
same,disease progression over the dose range,"[1]; 3, 10 and 30 mg/kg daily intraperitoneal injection",dose-dependent inhibition
same,symptoms of pristane-Induced Systemic Lupus Erythematosus,[2],reduce symptoms
same,body weight during the study,[2]; compared to dose started date,no loss of body weight
same,ds-DNA level,[2]; compared to group 1 (vehicle),inhibition
same,EC50,[3],24 ± 2 µM
same,IFN-α production by Flu-stimulated pDC from H4R KO mice,[4],inhibited
same,IFN-α production by Flu-stimulated pDC from wild type mice,[4],inhibited
same,cytotoxicity on purified pDC,pDC,no cytotoxic effect
same,"IFN-γ, TNF-α and CD107a expression by NK cells",[5],decrease
same,IFN-α/β and IFN-λ2/3 mRNA levels,flu-exposed human PBMC,significantly reduced
